Results from patent publication US9005902B2, “Tuberculosis diagnostic test” (priority 1998, dated 2015).

Legend:
[1] = test system: ESAT-6 peptide-specific IFN-γ-secreting T cells from peripheral blood; assay type: cell-based, human; conditions: for % of TB patients responding to individual peptide: peptide 10 μg/ml, 3×10^5 PBMC/well, positive = at least 5 IFN-γ SFCs more than and at least twice negative control
HLA DR7 = test: Peptide binding to HLA DR7
HLA DR1 = test: Peptide binding to HLA DR1

Sequence	% of TB patients responding to individual peptide [1] [%]	also measured
QKWDATATELNNALQ (listed as Mycobacterium tuberculosis) [ES12, 15-mer peptide from ESAT-6 of M. tuberculosis]	25	
NLARTISEAGQAMAS [ES15]	34	
WNFAGIEAAASAIQG [ES2]	40	
YQGVQQKWDATATEL [ES11]	34	
SAIQGNVTSIHSLLD (listed as Mycobacterium tuberculosis) [ES4, 15-mer peptide from ESAT-6 of M. tuberculosis]	23	
EGKQSLTKLAAAWGG (listed as Mycobacterium tuberculosis) [ES7, 15-mer peptide from ESAT-6 of M. tuberculosis]	15	
MTEQQWNFAGIEAAA (listed as Mycobacterium tuberculosis) [ES1, 15-mer peptide from ESAT-6 of M. tuberculosis]	57	Binding to HLA DR7 (HLA DR7): binds; % of healthy contacts tested recognising the peptide ([1]; healthy contacts exposed to open pulmonary tuberculosis): 68%; Number of contacts testing positive ([1]; out of 22 contacts with prolonged exposure to smear positive index case, Heaf test grade 3 or 4): 15; Binding to HLA DR1 (HLA DR1): binds
NNALQNLARTISEAG [ES14]	28	Detection of ESAT-6-specific CD8 T cells ([1]; peptide contains CD8 epitopes): detected
